We go through five compounds from US20180110784A1, “SYNTHETIC TLR4 AND TLR7 LIGANDS TO PREVENT, INHIBIT OR TREAT LIVER DISEASE” (The Regents of the University of California, priority 2015, published 2018).

Where two headings read alike, the source gives them in different places.

What all share (format): cell-based
One test relates to IL-6. Put plainly: IL-6 activity of TLR4 ligands, mouse. The arrangement: unit not given here.
Another test relates to IL-8. The test can be described thus: IL-8 activity of TLR4 ligands, human. Set-up: unit not given here.
A further test relates to IP-10. The test can be described thus: IP-10 activity of TLR4 ligands, mouse.
Test [1] has as its target TLR4 (Homo sapiens, UniProt O00206+Q9Y6Y9). The test can be described thus: TLR4 activity, human.
Test [2] has as its target T1, TLR4 (Mus musculus, UniProt Q9JHF9+Q9QUK6).
T1 sequence (Q9QUK6 26-835): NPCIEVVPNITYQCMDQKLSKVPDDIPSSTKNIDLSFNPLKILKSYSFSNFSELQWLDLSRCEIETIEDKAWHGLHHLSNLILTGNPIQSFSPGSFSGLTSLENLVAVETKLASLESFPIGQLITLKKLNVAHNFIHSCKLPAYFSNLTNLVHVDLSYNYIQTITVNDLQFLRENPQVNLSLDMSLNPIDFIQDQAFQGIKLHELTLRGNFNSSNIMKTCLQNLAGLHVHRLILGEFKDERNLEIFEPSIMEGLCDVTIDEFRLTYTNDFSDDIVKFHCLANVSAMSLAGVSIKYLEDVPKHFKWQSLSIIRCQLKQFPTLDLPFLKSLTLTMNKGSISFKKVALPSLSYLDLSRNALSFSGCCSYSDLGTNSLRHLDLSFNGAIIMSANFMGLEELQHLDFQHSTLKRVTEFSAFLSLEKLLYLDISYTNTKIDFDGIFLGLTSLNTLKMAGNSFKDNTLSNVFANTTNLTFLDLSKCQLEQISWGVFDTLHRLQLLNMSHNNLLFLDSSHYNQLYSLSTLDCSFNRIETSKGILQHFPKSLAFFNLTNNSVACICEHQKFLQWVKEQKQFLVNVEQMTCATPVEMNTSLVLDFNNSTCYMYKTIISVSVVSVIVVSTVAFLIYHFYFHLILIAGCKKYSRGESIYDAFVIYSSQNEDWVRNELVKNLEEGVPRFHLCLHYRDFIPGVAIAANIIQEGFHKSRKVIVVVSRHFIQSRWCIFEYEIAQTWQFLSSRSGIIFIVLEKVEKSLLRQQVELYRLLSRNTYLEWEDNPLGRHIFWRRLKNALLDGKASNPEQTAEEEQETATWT
T1 sequence (Q9JHF9 19-160): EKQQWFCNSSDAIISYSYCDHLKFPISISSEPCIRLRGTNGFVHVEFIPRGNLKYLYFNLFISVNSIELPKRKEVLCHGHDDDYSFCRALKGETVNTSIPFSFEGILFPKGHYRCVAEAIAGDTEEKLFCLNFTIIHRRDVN
The test can be described thus: TLR4 activity, mouse.

In a further test the test system is TLR9 signaling. The test can be described thus: CpG-DNA-induced TLR9 signaling-mediated inflammatory response in isolated Kupffer cells. As to conditions: R848 0.5 μM for 16 hours, then CpG-DNA 5 μg/mL for 4 hours. How it is done: It was examined whether 1Z1 (FIG. 7) inhibits TLR9 signaling, which promotes liver diseases, including non-alcoholic steatohepatitis (NASH) and alcoholic liver disease (ALD). Isolated Kupffer cells were treated with 1Z1 (5 μM) or R848 (0.5 μM) for 16 hours followed by stimulation with CpG-DNA (TLR9 ligand; 5 μg/mL) for 4 hours and inflammatory cytokine expression was then measured. Pretreatment with […], 1Z1, and R848 inhibited production of IL-6, TNFα, IL-1β, CCL5, CXCL1, and CXCL2 in Kupffer cells following CpG-DNA treatment (FIG. 18).

Chain of TLR4 (Homo sapiens, UniProt O00206+Q9Y6Y9) (O00206 24-839): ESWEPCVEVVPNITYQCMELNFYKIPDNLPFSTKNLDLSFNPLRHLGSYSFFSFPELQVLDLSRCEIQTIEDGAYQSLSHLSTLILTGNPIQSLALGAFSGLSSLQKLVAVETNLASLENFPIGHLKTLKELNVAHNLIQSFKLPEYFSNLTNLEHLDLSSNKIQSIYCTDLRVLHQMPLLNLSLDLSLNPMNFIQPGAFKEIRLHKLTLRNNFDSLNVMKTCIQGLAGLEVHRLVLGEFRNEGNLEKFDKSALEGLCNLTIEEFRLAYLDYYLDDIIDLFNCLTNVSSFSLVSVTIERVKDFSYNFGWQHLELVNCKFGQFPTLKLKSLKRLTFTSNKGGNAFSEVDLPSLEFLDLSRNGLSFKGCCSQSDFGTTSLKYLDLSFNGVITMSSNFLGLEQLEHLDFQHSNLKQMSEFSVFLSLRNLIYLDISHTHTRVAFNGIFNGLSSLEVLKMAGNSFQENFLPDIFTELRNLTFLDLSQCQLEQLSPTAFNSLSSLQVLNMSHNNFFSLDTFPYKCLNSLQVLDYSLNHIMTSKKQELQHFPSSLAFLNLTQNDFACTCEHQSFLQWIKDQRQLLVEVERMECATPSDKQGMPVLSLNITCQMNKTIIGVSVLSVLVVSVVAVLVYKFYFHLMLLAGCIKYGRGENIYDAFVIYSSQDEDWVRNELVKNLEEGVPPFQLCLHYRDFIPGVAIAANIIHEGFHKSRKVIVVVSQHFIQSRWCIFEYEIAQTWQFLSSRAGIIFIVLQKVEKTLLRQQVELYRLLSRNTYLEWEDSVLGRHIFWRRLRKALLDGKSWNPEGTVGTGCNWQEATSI
Chain of TLR4 (Homo sapiens, UniProt O00206+Q9Y6Y9) (Q9Y6Y9 17-160 limits assumed): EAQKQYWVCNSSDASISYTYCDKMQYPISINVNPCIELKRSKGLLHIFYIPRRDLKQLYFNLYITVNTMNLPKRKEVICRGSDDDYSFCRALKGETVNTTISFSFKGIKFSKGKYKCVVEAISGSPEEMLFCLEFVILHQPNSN

Consider `CCCCNC(=O)CSc1nc2c([nH]c3ccccc32)c(=O)n1-c1ccccc1` [Compound 23], for which the “mouse IL-6” value in the test on IL-6 stood at 49. The “human IL-8” value with IL-8 came out at 29. Besides, in the test on IP-10, the “mouse IP-10” value was found to be 61. For the same compound, the “human TLR4” value on TLR4 [1] is recorded as 32. Besides, at TLR4 [2], the “mouse TLR4” value stood at 31.

Regarding `O=C(CSc1nc2c([nH]c3ccccc32)c(=O)n1-c1ccccc1)NC1CCNCC1` [Compound 34], the “mouse IL-6” value with IL-6 is recorded as less than 1. Further, the “human IL-8” value with IL-8 stood at 17. Also, the “mouse IP-10” value with IP-10 is less than 1. For the same compound, at TLR4 [1] (human), the “human TLR4” value is reported as less than 1. Moreover, the “mouse TLR4” value at TLR4 [2] (mouse) was less than 1.

With `CN(C(=O)CSc1nc2c3ccccc3n(C)c2c(=O)n1-c1ccccc1)C1CCCCC1` [Compound 43], the “mouse IL-6” value with IL-6 is on record as less than 1. Moreover, in the test with IL-8, the “human IL-8” value amounted to 5. The “mouse IP-10” value with IP-10 is reported as less than 1. The “human TLR4” value on TLR4 [1] (human) is on record as less than 1. In addition, on TLR4 [2] (mouse), the “mouse TLR4” value was found to be 1.

With `COC(=O)CCCn1c2ccccc2c2nc(SCC(=O)NC3CCCCC3)n(-c3ccccc3)c(=O)c21` [Compound 44], the “mouse IL-6” value in the test on IL-6 is listed as 4. In the test with IL-8, the “human IL-8” value turned out to be 124. Moreover, the “mouse IP-10” value with IP-10 was determined as 19. For the same compound, the “human TLR4” value on TLR4 [1] (human) stood at 19. In addition, the “mouse TLR4” value at TLR4 [2] (mouse) came out at 9.

Regarding `CCOCc1nc2c(N)nc3ccccc3c2n1CC(C)(C)O` [Compound R848], the “production of IL-6, TNFα, IL-1β, CCL5, CXCL1, and CXCL2 following CpG-DNA treatment” value in the test on TLR9 signaling is given as “inhibited”.
